Assay results reported in patent US20160051493A1, “METHODS OF TREATMENT OF KERATINOCYTE-DERIVED LESIONS” (THE TRUSTEES OF COLUMBIA UNIVERSITY IN THE CITY OF NEW YORK, priority 2012, published 2016).
“Also recorded” adds a separate entry of the source. Like-named read-outs stand apart in the source and are kept apart here.

Key:
keratin 10 (K10) = assay: Western blot of keratin 10 in epidermal lysates after topical camphor; format: in vivo, FVB mice; conditions: 5 days
Experimental: To determine whether topical camphor treatment promotes keratinocyte differentiation in vivo, a separate cohort of adult female FVB mice were treated twice daily for a period of 5 days with increasing concentrations of topical camphor (0, 15%, 20% or 30% (wt/wt) camphor in acetone; N=3-4 mice per group). One day after the final topical dose, mice were sacrificed and epidermal lysates were prepared for immunoblot analysis according to standard protocols (Owens et al., J. Invest. Dermatol. 1996). […] Protein levels were detected by peroxidase activated luminol exposure to X-ray film and estimated by densitometry using NIH-Image J software. Levels of K10 were normalized to levels of beta-tubulin for each sample; therefore, data are expressed as the ratio of K10 to beta-tubulin (K10/beta-tubulin). […]
To determine whether topical camphor treatment promotes keratinocyte differentiation in vivo, adult female FVB mice (n=3-4 per group) were treated twice daily for a period of 5 days with increasing concentrations of topical camphor (15%, 20% or 30% (wt/wt)) or vehicle only. […] It was determined that topical camphor treatment upregulates levels of a keratinocyte terminal differentiation marker in vivo.

[1] = cited from earlier work
SCC-39 cells [2] = assay: Live-cell calcium imaging of SCC cell line SCC-39; format: cell-based, human; conditions: 10 mM camphor; compared with SCC-13 cells
Experimental: (§1) Human keratinocytes and SCC cells were washed in Ringer's solution (in mM: NaCl 140, KCl 5, D-glucose 10, HEPES 10, CaCl2 2, MgCl2 2, pH 7.2) and loaded with 5 μM fura-2AM and 1 μM pluronic (Invitrogen) for 30 minutes in the dark. During live-cell imaging, saturating concentrations of TRP agonists (10 mM Camphor, 100 μM 2-APB 1 μM Capsaicin, 300 μM Mustard oil or 3 μM 4αPDD) in Ringer's were used. Cells were imaged for 20 s to establish a baseline and then acutely treated with each agonist for 60 seconds. Imaging was performed on an Olympus IX81 microscope with a 20× (NA 0.17) objective and a Hamamatsu ORCA-R2 camera. 340- and 380-nm excitation and 540-nm emission filters were used to capture fura-2 fluorescence. Data are expressed as a ratio of fluorescent signals (340/380). All data acquisition was performed in MetaFluor. Data analysis was performed with custom algorithms in IgorPro. Cells with baseline levels ±2 SD above the mean were excluded from analysis as unhealthy. Responders were designated as cells whose 340/380 ratio was ≧20% above baseline.
(§2) Moreover, their responses to camphor mirror their respective levels of TRP channel expression.

[3] = system: normal human epidermal keratinocytes; assay: Ratiometric fura-2 live-cell calcium imaging of keratinocytes; format: cell-based; conditions: for % Responders (differentiated) Mean ± SEM: differentiated in 1.2 mM Ca2+, 4αPDD 3 μM, camphor 10 mM, 2-APB 100 μM; for % Responders (differentiated) Mean ± SEM / % Responders (undifferentiated) Mean ± SEM or SD: responders F340:F380 increase ≧20%; for % Responders (undifferentiated) Mean ± SEM or SD: saturating agonist (4αPDD 3 μM, camphor 10 mM, 2-APB 100 μM, capsaicin 1 μM, mustard oil 300 μM), SD for capsaicin and mustard oil
Experimental: (§3) Normal human keratinocytes were isolated from human foreskins by undergoing two enzymatic dissociation steps, first in dispase then in trypsin. Cells were cultured in EpiLife supplemented with human keratinocyte growth supplement (HKGS; Invitrogen). For all experiments with undifferentiated cells, keratinocytes were harvested or images at ˜75% confluency. Differentiation was induced by adding CaCl2 to the EpiLife media to reach a final [Ca2+] of 1.2 mM. Cells were typically cultured for 3 days under differentiation conditions before they were assayed. Keratinocytes were cultured for <5 passages. Purified Camphor (CAS #76-22-2), 2-APB (Tocris) or vehicle (1% EtOH)-containing media were used as indicated.
as §1
TRP channels are selectively activated by endogenous and exogenous ligands at micromolar to millimolar concentrations. Since TRP channel activity increases over this range to allow graded Ca^2+ influx, receptor activity levels can be monitored by live-cell Ca^2+ imaging. A ratiometric calcium indicator (Fura-2) was employed to determine whether a panel of TRP-channel agonists elicited cytoplasmic calcium increases in human epidermal keratinocytes. (FIG. 1A-1E, FIG. 2A-2B, and Table 3).
Normal human keratinocytes were cultured in low-calcium media to promote proliferation or in 1.2-mM calcium media to induce differentiation. For live-cell imaging, keratinocytes were then washed and bathed in Ringer's solution containing 2 mM calcium so that calcium signals could be directly compared between cell populations.
In keratinocytes, increased intracellular calcium stimulates the terminal differentiation process. To determine whether camphor oil and its abundant constituents are directly bioactive on epithelial keratinocytes, a ratiometric Ca2+ indictor (Fura-2) was employed to test whether a panel of terpenes elicited cytoplasmic Ca2+ increases in undifferentiated human epidermal keratinocytes (FIG. 19A-19C). Keratinocytes were cultured according to our standard methods. For live-cell imaging, keratinocytes were bathed in Ringer's solution containing 2 mM Ca2+.

TRPV1 = TRPV1 (Rattus norvegicus, UniProt O35433); conditions: Activation; cited from earlier work
Sequence of TRPV1 (O35433 whole entry): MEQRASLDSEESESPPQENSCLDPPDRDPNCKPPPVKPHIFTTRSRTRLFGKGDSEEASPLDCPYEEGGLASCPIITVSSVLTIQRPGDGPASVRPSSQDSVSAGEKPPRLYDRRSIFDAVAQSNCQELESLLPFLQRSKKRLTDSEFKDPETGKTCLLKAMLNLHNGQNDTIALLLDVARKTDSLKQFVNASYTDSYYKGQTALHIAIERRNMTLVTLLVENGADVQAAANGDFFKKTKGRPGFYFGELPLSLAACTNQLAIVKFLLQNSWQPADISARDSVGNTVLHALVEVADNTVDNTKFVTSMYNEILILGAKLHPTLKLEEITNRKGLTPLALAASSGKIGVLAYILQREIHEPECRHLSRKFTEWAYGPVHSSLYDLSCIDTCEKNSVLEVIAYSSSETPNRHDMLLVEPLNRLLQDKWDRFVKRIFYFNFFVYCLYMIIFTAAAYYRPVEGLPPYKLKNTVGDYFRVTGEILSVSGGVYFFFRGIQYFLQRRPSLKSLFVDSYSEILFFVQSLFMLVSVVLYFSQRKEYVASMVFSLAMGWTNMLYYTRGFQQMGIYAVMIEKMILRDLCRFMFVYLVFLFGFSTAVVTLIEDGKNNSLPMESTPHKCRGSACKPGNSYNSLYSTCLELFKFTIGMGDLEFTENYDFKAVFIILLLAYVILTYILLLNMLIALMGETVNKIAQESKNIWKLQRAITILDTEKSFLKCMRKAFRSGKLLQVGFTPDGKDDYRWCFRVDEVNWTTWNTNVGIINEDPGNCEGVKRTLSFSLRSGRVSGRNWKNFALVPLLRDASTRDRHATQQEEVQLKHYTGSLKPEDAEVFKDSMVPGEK

[4] = cited from earlier work; remark: listed apart in the source
[5] = system: normal human keratinocytes; assay: Keratinocyte cell counts (DAPI), morphology and EdU proliferation assay after 24 h treatment; conditions: 24 hours
Experimental: as §3
Cells were treated with 2-APB or camphor for 24 hours at 37° C., exposed to EdU for 45 min, fixed and stained with DAPI for cell counting. EdU Click-It assays (Invitrogen) were used to assess cell-cycle entry. The cells were then fixed and stained with DAPI. Three fields per well were assayed via a 20× objective and there were 4 wells per treatment in each experiment. EdU=5-ethynyl-2′-deoxyuridine.
As Ca^2+ triggers the commitment switch from proliferation to differentiation in keratinocytes, it was reasoned that increasing intracellular calcium by incubating keratinocytes in TRP agonists might be sufficient to induce this cell-fate switch in low-calcium growth media. To test this hypothesis, normal human keratinocytes were cultured for 24 hours under low-Ca^2+ conditions in the presence of low (12.5 μM), half-maximal (50 μM) and saturating (100 μM) concentrations of 2-APB (FIG. 3A) or camphor (0-8 mM) (FIG. 3E). These TRP agonists were chosen because they reliably elicited intracellular calcium signaling in normal human keratinocytes (FIG. 1A-1E).
As camphor can activate both TRPV3 and TRPV1 channels, these experiments were repeated in the presence of a specific TRPV1 antagonist, AMG-9810 (Gavva et al., 2005).

TRPV3 = conditions: Activation, cited from earlier work
SCC-13 cells [6] = assay: Live-cell calcium imaging of SCC cell line SCC-13; format: cell-based, human; conditions: 10 mM camphor; compared with proliferating keratinocytes
Experimental: as §1, §2

[7] = cited from earlier work; remark: listed apart in the source
TRPA1 = conditions: Inhibition; read-out: Effective concentration IC50; cited from earlier work
human keratinocytes = conditions: 50 μM, 7 days
Experimental: (§4) Organotypic human skin cultures and primary SCC lines were isolated from human SCCs and cultured as previously described (Bachelor et al., 2011). In brief, human fibroblasts were seeded in a collagen matrix on a 70 μm filter insert and incubated at 37° C. for 5-7 days. Human keratinocytes or SCC cells were then seeded on the apical surface of the fibroblast-collagen matrix and cultured for 2 days submerged in media to allow monolayer formation. The media was then removed from the apical surface (raising), exposing the keratinocytes or SCC cells to air. The cultures were maintained in this fashion for up to 14 days, and the media to the fibroblasts below was changed every 2-3 days. At the time of raising, 50 μM 2-APB or vehicle (1% EtOH) was added to the media.
Sections were fixed in 4% paraformaldehyde, paraffin embedded and sectioned at 8 μm. Hematoxylin and Eosin (H&E) stained sections were imaged with a bright field microscope equipped with a 10× (0.3 NA) and 20× (0.4 NA) objectives and an Axiocam color CCD camera (Zeiss AxioObserver.Z1). Epidermal thickness was assessed by measuring the nucleated layers with ImageJ software (NIH ImageJ). Number of invading cells was determined by counting the number of round nuclei below the basement membrane per 10× field (fibroblast nuclei are flatten and were excluded). […] Six random frames per section were quantified.

[8] = system: keratinocyte differentiation genes (LOR, FLG, IVL, TGM3); conditions: 50 μM, 24 hours
Description: RNA was isolated using RNeasy Kit (Qiagen) and reversed transcribed. Four technical replicates were run for each primer set and cDNA sample using SYBR Green (Applied Biosystems) for quantitative readout. Complementary DNA was synthesized with oligo-dT primers and SuperScript III (Invitrogen). Primers were generated in Primer3. Primer pairs were optimized for qPCR and validated in control specimens. […] Melting curves were generated for all products to confirm a single amplicon for each product. To determine gene expression in each sample, cycle thresholds (CT) of the gene of interest were normalized to the reference gene GAPDH (ΔCT). Fold change was determined using the ΔΔCT method where vehicle or growth conditions were used as the calibrator (ΔΔCT=[(CT(target gene)−CT(reference gene)]−[CT(calibrator)]−CT(reference gene)]. All gene amplifications were performed in quadruplicate.

TRPC1 = TRPC1 (Homo sapiens, UniProt P48995); conditions: cited from earlier work
Sequence of TRPC1 (P48995 whole entry, species assumed): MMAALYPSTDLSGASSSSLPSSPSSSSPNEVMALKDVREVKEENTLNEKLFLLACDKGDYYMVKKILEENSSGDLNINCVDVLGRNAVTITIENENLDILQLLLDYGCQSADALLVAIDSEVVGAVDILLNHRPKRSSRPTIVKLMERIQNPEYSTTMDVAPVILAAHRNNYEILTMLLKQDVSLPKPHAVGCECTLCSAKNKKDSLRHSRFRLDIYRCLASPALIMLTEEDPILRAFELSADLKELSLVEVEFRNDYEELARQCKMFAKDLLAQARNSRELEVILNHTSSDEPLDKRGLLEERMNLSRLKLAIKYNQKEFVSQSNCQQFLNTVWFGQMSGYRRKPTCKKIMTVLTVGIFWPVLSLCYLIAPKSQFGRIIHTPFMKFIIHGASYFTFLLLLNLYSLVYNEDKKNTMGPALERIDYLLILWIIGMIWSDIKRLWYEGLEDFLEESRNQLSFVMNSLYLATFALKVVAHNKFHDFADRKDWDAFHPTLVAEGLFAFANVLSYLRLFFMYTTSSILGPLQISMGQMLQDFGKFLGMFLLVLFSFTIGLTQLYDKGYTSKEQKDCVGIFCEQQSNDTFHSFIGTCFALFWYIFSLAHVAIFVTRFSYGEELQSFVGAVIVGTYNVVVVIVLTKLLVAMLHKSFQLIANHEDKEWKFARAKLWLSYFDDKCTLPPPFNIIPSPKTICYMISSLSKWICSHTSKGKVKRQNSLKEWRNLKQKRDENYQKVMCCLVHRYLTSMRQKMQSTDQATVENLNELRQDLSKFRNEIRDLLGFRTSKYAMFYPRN

ORAI1 = ORAI1 (Homo sapiens, UniProt Q96D31); conditions: Inhibition; cited from earlier work
Sequence of ORAI1 (Q96D31 whole entry, species assumed): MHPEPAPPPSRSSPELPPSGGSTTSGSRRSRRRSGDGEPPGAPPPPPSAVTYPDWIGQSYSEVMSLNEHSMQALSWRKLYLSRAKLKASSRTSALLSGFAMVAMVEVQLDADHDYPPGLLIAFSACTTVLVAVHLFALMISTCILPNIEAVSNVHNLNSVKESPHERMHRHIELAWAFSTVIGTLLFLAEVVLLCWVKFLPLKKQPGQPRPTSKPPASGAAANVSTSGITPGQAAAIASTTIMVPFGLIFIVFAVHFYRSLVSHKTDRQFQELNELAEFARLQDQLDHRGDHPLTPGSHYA

SCC-39 cells [9] = conditions: 50 μM, 14 days
Experimental: as §4
(§5) Sections were fixed in 4% paraformaldehyde, paraffin embedded and sectioned at 8 μm. Hematoxylin and Eosin (H&E) stained sections were imaged with a bright field microscope equipped with a 10× (0.3 NA) and 20× (0.4 NA) objectives and an Axiocam color CCD camera (Zeiss AxioObserver.Z1). Epidermal thickness was assessed by measuring the nucleated layers with ImageJ software (NIH ImageJ). Number of invading cells was determined by counting the number of round nuclei below the basement membrane per 10× field (fibroblast nuclei are flatten and were excluded). Four non-serial paraffin sections per experiment were examined. Six random frames per section were quantified.
(§6) As TRP-channels are expressed in human SCC keratinocytes and TRP agonists arrest keratinocyte proliferation, it was reasoned that TRP agonists might be candidates for SCC-targeted therapy. To test this notion, organotypic human skin cultures were seeded with SCC cells.

SCC-73 cells = conditions: 50 μM, 14 days
Experimental: as §4, §5, §6

SCC-13 cells [10] = conditions: 50 μM, 14 days
Experimental: as §4, §5, §6

skin tumors = conditions: mouse, in vivo; cited from earlier work
DNA = conditions: cited from earlier work

## CC12CCC(CC1=O)C2(C)C (racemic) [Camphor, 1,7,7 Trimethylbicyclo[2.2.1]heptan-2-one]
Keratin 10 (K10); 15%, 20% or 30% (wt/wt) topical twice daily
  expression of K10: increased with camphor treatment in a dose-dependent manner; also recorded: upregulates
Keratin 10 (K10); 30% (wt/wt) topical twice daily
  K10 protein levels (K10/beta-tubulin) versus lower concentrations or vehicle: significantly higher
[1]; 20% solution in alcohol, normal skin temperatures (Green 1990)
  sensation on skin of volunteers: no significant sensation of irritation or pain
[1]; in vivo
  doses reported to cause skin irritation as well as toxicity when ingested: > 20%
SCC-39 cells [2]
  camphor-evoked calcium responses: significantly fewer
[3]; 10 mM camphor
  proportion of cells showing Ca2+ increases, differentiated versus proliferating keratinocytes: 5.7 fold
[3]
  % Responders (differentiated) Mean ± SEM: 37.5 ± 15.7%
[3]; differentiated keratinocytes
  magnitude of camphor-evoked responses, increase over baseline: 78±1%
[3]; growth conditions
  magnitude of camphor-evoked responses, increase over baseline: 55±1%
  % Responders (undifferentiated) Mean ± SEM or SD: 6.5 ± 2.8%
TRPV1
  Effective concentration Range: Range = 1-10 mM
[4]; after inhalation or dermal exposure (Baselt and Cravey 1990)
  absorption: well absorbed
[4]; low-dose (46.80 mg) dermal application (Martin et al. 2004)
  plasma concentrations: low plasma concentrations
[5]
  concentration that arrests proliferation without inducing necrotic changes: 4 to 8 mM
TRPV3
  Effective concentration Range: Range = 2-10 mM
SCC-13 cells [6]
  camphor-evoked cytoplasmic calcium signals: increased
[7]
  solubility in water: slightly soluble
TRPA1
  IC50: 68 µM

## NCCOB(c1ccccc1)c1ccccc1 [2-APB, 2-aminoethoxydiphenyl borate]
Human keratinocytes
  nucleated epidermal layers: one-third reduction
[3]
  % Responders (differentiated) Mean ± SEM: 13.0 ± 7.2%
[3]; growth conditions
  % Responders (undifferentiated) Mean ± SEM or SD: 2.5 ± 0.9%
[8]
  involucrin (IVL) expression: little change
  transglutaminase 3 (TGM3) expression: little change
[8]; low-calcium growth media
  FLG transcript level induction versus vehicle: more than 15 fold
  LOR transcript level induction versus vehicle: more than 15 fold
TRPC1; Activation
  Effective concentration Range: Range = 5-10 μM
TRPC1; Inhibition
  Effective concentration Range: Range = 50-100 μM
ORAI1
  Effective concentration Range: Range = 5-50 μM
[5]; 12.5 μM
  EdU incorporation: significant increased
[5]; 12.5 μM, low-Ca2+, one set of primary keratinocytes
  cell population compared with vehicle-treated controls: 325+/−5%
[5]; 50 μM
  EdU incorporation (cell-cycle arrest): completely inhibited
  cell number: slight reduction
[5]; 100 μM
  keratinocyte morphology and cell numbers (cytotoxicity): necrotic morphological changes and a loss of cell numbers
[5]; 12.5 or 50 μM
  keratinocyte morphology: indistinguishable from vehicle-treated cells
[5]
  concentration that arrests proliferation without inducing necrotic changes: 0.05 mM
TRPV3
  Effective concentration Range: Range = 3.2-320 μM
TRPV3; read-out: Effective concentration EC50
  EC50: 28 µM
SCC-39 cells [9]
  inhibition of cell invasion versus vehicle-treated cultures: > 93%
  reduction of tumor formation above the dermis: > 37%
  tumor thickness: reduced tumor thickness
SCC-73 cells
  invasive nature and growth of tumor cells: dramatically reduced
  tumor thickness: reduced tumor thickness
SCC-13 cells [10]
  reduction of tumor formation above the dermis: > 37%
  tumor thickness: reduced tumor thickness

## Nc1ccc(C(=O)O)cc1 [p-Aminobenzoic acid]
Skin tumors
  Results of safety: against skin tumors in mice: Protects
DNA
  Results of safety: DNA defects: increase
